Assay results from ChEMBL document CHEMBL1201862, “PubChem BioAssay data set” (2004).
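Cultured in 96-well plates, cells were exposed to test compound for 48 hours across five concentrations. Abbreviation: GI50, concentration required for 50% inhibition of growth.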 Active and inactive are the calls of the source. Rule as the data show it: active = GI50 up to about 1.1 µM and inactive = higher.

Columns and labels:
Test in all cases: inhibition of tumour cell growth, NCI panel, 48 h
RPMI-8226 = test system: RPMI-8226
U-251 = test system: U-251
IGROV-1 = test system: IGROV-1
SF-539 = test system: SF-539
K562 = test system: K562
UACC-257 = test system: UACC-257
HL-60 = test system: HL-60
HCC 2998 = test system: HCC 2998
OVCAR-3 = test system: OVCAR-3
EKVX = test system: EKVX
OVCAR-5 = test system: OVCAR-5
SK-OV-3 = test system: SK-OV-3
KM12 = test system: KM12
RXF 393 = test system: RXF 393
NCI-H522 = test system: NCI-H522
SK-MEL-5 = test system: SK-MEL-5
LOX IMVI = test system: LOX IMVI
SN12C = test system: SN12C
Malme-3M = test system: Malme-3M
CAKI-1 = test system: CAKI-1

Row | SMILES | GI50 (RPMI-8226) | GI50 (U-251) | GI50 (IGROV-1) | GI50 (SF-539) | GI50 (K562) | GI50 (UACC-257) | GI50 (HL-60) | GI50 (HCC 2998) | GI50 (OVCAR-3) | GI50 (EKVX) | GI50 (OVCAR-5) | GI50 (SK-OV-3) | GI50 (KM12) | GI50 (RXF 393) | GI50 (NCI-H522) | GI50 (SK-MEL-5) | GI50 (LOX IMVI) | GI50 (SN12C) | GI50 (Malme-3M) | GI50 (CAKI-1)
1 | COc1ccc(C2=N/C(=C\c3ccccc3)C(=O)O2)cc1 | 36.6 µM (inactive) | 62.7 µM (inactive) | > 100 µM (inactive) | 44.3 µM (inactive) | 34 µM (inactive) | > 100 µM (inactive) | 12.2 µM (inactive) | 75.9 µM (inactive) | 53.7 µM (inactive) | > 100 µM (inactive) | > 100 µM (inactive) | > 100 µM (inactive) | 36.6 µM (inactive) | > 100 µM (inactive) | – | – | – | – | – | –
2 | CCC(C)NC1=NCC(C)S1 (centres undefined) | > 100 µM (inactive) | > 100 µM (inactive) | > 100 µM (inactive) | > 100 µM (inactive) | > 100 µM (inactive) | > 100 µM (inactive) | > 100 µM (inactive) | > 100 µM (inactive) | > 100 µM (inactive) | > 100 µM (inactive) | > 100 µM (inactive) | > 100 µM (inactive) | > 100 µM (inactive) | 28.3 µM (inactive) | > 100 µM (inactive) | > 100 µM (inactive) | > 100 µM (inactive) | > 100 µM (inactive) | > 100 µM (inactive) | > 100 µM (inactive)
3 | CCCn1cc2c(SC)nc(SC)nc2n1 | > 100 µM (inactive) | > 100 µM (inactive) | > 100 µM (inactive) | > 100 µM (inactive) | > 100 µM (inactive) | > 100 µM (inactive) | > 100 µM (inactive) | > 100 µM (inactive) | – | > 100 µM (inactive) | > 100 µM (inactive) | – | > 100 µM (inactive) | > 100 µM (inactive) | – | > 100 µM (inactive) | > 100 µM (inactive) | > 100 µM (inactive) | > 100 µM (inactive) | > 100 µM (inactive)
4 | CCOc1ccc2nc(-c3ccc(O)cc3)sc2c1 | 0.106 µM (active) | 43.9 µM (inactive) | > 100 µM (inactive) | 45 µM (inactive) | > 100 µM (inactive) | 0.166 µM (active) | 2 µM (inactive) | – | 46.9 µM (inactive) | 10.3 µM (inactive) | > 100 µM (inactive) | 24.2 µM (inactive) | 35 µM (inactive) | 37 µM (inactive) | 4.82 µM (inactive) | 89.5 µM (inactive) | > 100 µM (inactive) | > 100 µM (inactive) | > 100 µM (inactive) | 36.7 µM (inactive)
5 | CC(=O)C1(c2ccccc2)CCCN(C)CC1 (centres undefined) | > 100 µM (inactive) | > 100 µM (inactive) | > 100 µM (inactive) | – | – | > 100 µM (inactive) | – | > 100 µM (inactive) | > 100 µM (inactive) | – | > 100 µM (inactive) | > 100 µM (inactive) | > 100 µM (inactive) | – | – | > 100 µM (inactive) | > 100 µM (inactive) | – | > 100 µM (inactive) | > 100 µM (inactive)
6 | COc1cccc(N2C(=O)CSC2c2c[nH]c3ccccc23)c1 (centres undefined) | – | > 100 µM (inactive) | > 100 µM (inactive) | – | > 100 µM (inactive) | > 100 µM (inactive) | > 100 µM (inactive) | > 100 µM (inactive) | > 100 µM (inactive) | > 100 µM (inactive) | > 100 µM (inactive) | > 100 µM (inactive) | > 100 µM (inactive) | > 100 µM (inactive) | 97.9 µM (inactive) | > 100 µM (inactive) | > 100 µM (inactive) | > 100 µM (inactive) | – | –
7 | CC(=O)c1ccc2c(c1)c1c(C)c3c[n+](C)ccc3c(C)c1n2C | 3.84 µM (inactive) | 0.706 µM (active) | 16.5 µM (inactive) | 2.37 µM (inactive) | 14.8 µM (inactive) | 6.35 µM (inactive) | 8.75 µM (inactive) | 29.5 µM (inactive) | 12 µM (inactive) | 33.3 µM (inactive) | 28.9 µM (inactive) | 16.1 µM (inactive) | 10.6 µM (inactive) | 11.4 µM (inactive) | 13.7 µM (inactive) | 4.73 µM (inactive) | 4.63 µM (inactive) | 0.499 µM (active) | 10.4 µM (inactive) | 6.92 µM (inactive)
8 | COc1cccc2c1C(=O)c1c(O)c3c(c(O)c1C2=O)CC(O)(C(C)=O)CC3O (centres undefined) | 2.18 µM (inactive) | 4.03 µM (inactive) | 3.44 µM (inactive) | 4.74 µM (inactive) | 4.34 µM (inactive) | 10.6 µM (inactive) | 3.6 µM (inactive) | 7.24 µM (inactive) | 7.8 µM (inactive) | 4.9 µM (inactive) | 10.5 µM (inactive) | 11.5 µM (inactive) | 6.17 µM (inactive) | 5.98 µM (inactive) | 1.03 µM (active) | 2.16 µM (inactive) | 1.63 µM (inactive) | 3.8 µM (inactive) | 4.56 µM (inactive) | 4.61 µM (inactive)
